For 22 compounds, TGI and GI50 results are on record in PubChem BioAssay (NCI).

SMILES strings stand for the structures.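 Step 1: Grow cells in 96-well plates. Step 2: Expose to compound for 48 hours at 5 concentrations. Step 3: Interpolate endpoints linearly; if unreached, use highest concentration. Abbreviation: GI50, concentration required for 50% inhibition of growth. Definition used: TGI = concentration required for complete inhibition of growth.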 Where a SMILES comes first, the peptide text is derived from it. [ ]: non-standard residue; d: D form. The star is where a group is joined. NMeAc5c = CNC1(C(=O)O)CCCC1; Boc = CC(C)(C)OC(=O)*; OBn = c1ccc(CO*)cc1 A value given as a limit tells only on which side of the number the result lay.

Holding throughout (test): NCI tumour cell line growth inhibition, 48 h
Test [1] concerns MDA-N.
The subject of test [2] is EKVX NSCLC.
Test [3] deals with SNB-75 CNS.
Test [4] deals with SN12C renal.
In test [5] the test system is CCRF-CEM leukemia.
The test system of test [6] is MOLT-4 leukemia.
For test [7], the system named is SK-MEL-28 melanoma.
Test [8] deals with HCT-15 colon.
For test [9], the system named is A498 renal.
In test [10] the test system is PC-3 prostate.
The test system of test [11] is BT-549 breast.
For test [12], the system named is OVCAR-8 ovarian.
Test [13] concerns SR leukemia.

In the case of `COc1ccc(-c2c(C#N)c(-c3ccc(C)cc3)n(NS(=O)(=O)c3ccc(C)cc3)c(=O)c2C#N)cc1`, the TGI was greater than 100 µM in test [1]; greater than 100 µM in [2]; greater than 100 µM in [3]; greater than 100 µM in [4]; 81.6 µM in test [5]; 57.4 µM in test [6]. Besides, the TGI in test [7], in test [8], in test [9], in test [10], in test [11] and in test [12] was greater than 100 µM throughout.

Take `Cc1ccc(-c2n[nH]c(=O)n2N2C(=O)c3ccccc3C2=O)cc1`: the TGI in [1], in [3], in test [4], in [6], in test [7] and in test [8] was greater than 100 µM throughout. The TGI in [13], in test [10], in test [11] and in test [12] was greater than 100 µM in each case.

As to `CCOC(=O)CSc1c(C(=O)OCC)c(=O)n(-c2ccccc2)c(=S)n1-c1ccccc1`, the TGI in [1], in test [2], in [3], in test [4], in test [5] and in [6] was greater than 100 µM throughout. Also, the TGI in test [7], in test [8], in [13], in test [10], in test [11] and in [12] was greater than 100 µM each time.

On to `Cc1cc(Cc2cc(C)c(N)cc2N)c(N)cc1N`, for which the TGI in [1], in test [2], in test [3], in [4], in test [6] and in test [7] was greater than 100 µM each time. Moreover, the TGI in [8], in [9], in test [10], in test [11] and in test [12] was greater than 100 µM in each case.

As to `CCOC(=O)C1(C/C=C/CBr)Cc2ccccc2C1=O` (configuration not stated), the TGI in test [1] was determined as 6.37 µM; in test [2], 28.7 µM; in test [3], 31.9 µM; in [4] it was 6.41 µM; in test [5], 5.36 µM; in test [6], 8.31 µM. For the same compound, the TGI in test [7] is 20.8 µM; in [8], 5.73 µM; in [9], 32.6 µM; in [10], 19.2 µM; in test [11], 8.86 µM; in test [12], 7.34 µM.

As to `O=c1c2cc([N+](=O)[O-])cnc2sn1-c1ccc([N+](=O)[O-])cc1`, the TGI in test [1] is greater than 100 µM; in test [2], greater than 100 µM; in [3], greater than 100 µM; in test [4], greater than 100 µM; in test [5], 82.2 µM; in test [6], 75.6 µM. The TGI in test [7] is greater than 100 µM; in [8] it was 87.5 µM; in [13] it was 54.6 µM; in test [10], 83.8 µM; in test [11], 93.9 µM; in test [12], greater than 100 µM.

On to `Cc1ccc(C(=O)O)cc1S(=O)(=O)Nn1cnc2ccc(S(=O)(=O)Nc3ccccc3C(=O)O)cc2c1=O`, for which the TGI in test [1], in test [2], in test [3], in test [4], in test [5] and in test [6] was greater than 100 µM each time. The TGI in test [7], in [8], in test [13], in test [10], in test [11] and in [12] was greater than 100 µM throughout.

For `S=C1Nc2ccccc2SC1c1ccccc1` (configuration not stated), the TGI in test [1] is greater than 100 µM; in test [2] it was greater than 100 µM; in test [3], 71.3 µM; in test [4], greater than 100 µM; in [5], greater than 100 µM; in [6] it was greater than 100 µM. The TGI in test [7], in test [8], in test [13], in test [10], in test [11] and in [12] was greater than 100 µM throughout.

As to `COC(=O)C([C@H](NC1(c2ccccc2)c2ccccc2-c2ccccc21)C(=O)OC)N(NC(=O)OCc1ccccc1)C(=O)OCc1ccccc1` (mixture of isomers), the TGI in [1], in test [2], in test [4], in test [5], in test [6] and in test [7] was greater than 100 µM in each case. Besides, the TGI in [8], in test [13], in test [9], in [10], in [11] and in test [12] was greater than 100 µM throughout.

In the case of `CC[C@@H]1CC[C@@H]2[C@H](CC[C@]3(C)[C@@H](OC(C)=O)CC[C@@H]23)[C@H]1COC(C)=O`, the TGI is 62.2 µM in test [1]; 73.6 µM in [2]; greater than 100 µM in test [3]; 60.9 µM in [4]; 41.2 µM in test [5]; 37 µM in test [6]. Also, the TGI was greater than 100 µM in [7]; 56 µM in test [8]; 94.4 µM in [9]; greater than 100 µM in test [10]; 87.9 µM in [11]; 82 µM in test [12].

Consider `CC(=O)O[C@@H]1[C@H](C(C)C)[C@@H](OC(C)=O)C/C(C)=C/CC[C@]2(C)O[C@@H]12`, for which the TGI in [1], in [2], in test [3], in test [4], in test [6] and in test [7] was greater than 100 µM in each case. Besides, the TGI in [8], in test [9], in test [10], in test [11] and in [12] was greater than 100 µM throughout.

As for `COc1cc2nc3n(c(=O)c2cc1OC)-c1ccc([N+](=O)[O-])cc1C3=O`, the TGI in [1], in test [2], in [3], in test [4], in test [6] and in test [7] was greater than 100 µM in each case. Also, the TGI was greater than 100 µM in test [8]; 78.6 µM in test [9]; greater than 100 µM in test [10]; greater than 100 µM in test [11]; greater than 100 µM in test [12].

Consider `CC(=O)OC1CC(OC2C(O)CC(OC3C(O)CC(OC4CCC5(C)C(CCC6C5CC(O)C5(C)C(C7=CC(=O)OC7)CCC65O)C4)OC3C)OC2C)OC(C)C1OC1OC(CO)C(O)C(O)C1O` (configuration not stated), for which the TGI in test [1] was 0.526 µM; in test [2], 0.0981 µM; in [3] it was 0.846 µM; in [4], 0.112 µM; in test [6], greater than 100 µM; in test [7] it was 0.979 µM. Besides, the TGI is 0.16 µM in [8]; 0.413 µM in test [9]; 0.206 µM in test [10]; 0.167 µM in [11]; 0.204 µM in test [12]. Also, the GI50 in [4] is 0.0194 µM; in [10], 0.0522 µM.

Regarding `[N-]=[N+]=NC[C@H]1OCO[C@H](CN=[N+]=[N-])[C@@H](OCCOCCCl)[C@@H]1OCCOCCCl`, the TGI in [1], in test [2], in test [3], in test [4], in test [5] and in test [6] was greater than 100 µM each time. Also, the TGI in test [7], in test [8], in test [13], in [10], in test [11] and in test [12] was greater than 100 µM each time.

In the case of `O=c1ccc(-c2ccccc2)n[nH]1`, the TGI in [1], in test [2], in [4], in [5], in test [6] and in [7] was greater than 100 µM throughout. The TGI in [8], in test [13], in test [9], in test [10], in [11] and in test [12] was greater than 100 µM in each case.

As for `COc1cccc(C(=O)O[C@H]2[C@@H]3[C@]4(OC(C)=O)CO[C@@H]4C[C@H](O)[C@@]3(C)C(=O)[C@H](OC(C)=O)C3=C(C)[C@@H](OC(=O)[C@H](O)[C@@H](NC(=O)OC(C)(C)C)c4ccco4)C[C@]2(O)C3(C)C)c1`, the TGI in [1] was 0.0382 µM; in test [2], greater than 28.9 µM; in [3] it was 0.0241 µM; in test [4] it was greater than 37.5 µM; in [5], 0.368 µM; in [6] it was 9.99 µM. Further, the TGI was greater than 29.5 µM in test [7]; greater than 16.4 µM in [8]; greater than 14.8 µM in test [13]; greater than 34.1 µM in test [11]; greater than 14.4 µM in test [12].

Take `CN(C(=O)C(Cc1ccccc1)NC(=O)OC(C)(C)C)C1(C(=O)NC(Cc2ccccc2)C(=O)OCc2ccccc2)CCCC1` (stereo not drawn) (Boc-Phe-[NMeAc5c]-Phe-OBn; configuration not given here): the TGI is 65.4 µM in [1]; greater than 100 µM in [2]; greater than 100 µM in test [3]; greater than 100 µM in test [4]; greater than 100 µM in [5]; 84.2 µM in test [6]. In addition, the TGI in [7] is greater than 100 µM; in test [8], greater than 100 µM; in test [13] it was 69.1 µM; in test [10], greater than 100 µM; in test [11], greater than 100 µM; in test [12], greater than 100 µM.

In the case of `COc1cc(Br)cc2cc(-c3cn4ccsc4n3)c(=O)oc12`, the TGI in [1] is 42.2 µM; in test [2], greater than 100 µM; in test [3] it was greater than 100 µM; in test [4], greater than 100 µM; in test [5], greater than 100 µM; in test [6], greater than 100 µM. Moreover, the TGI in [7] was greater than 100 µM; in [8] it was greater than 100 µM; in test [13], greater than 100 µM; in test [10], greater than 100 µM; in [11] it was 50.7 µM; in test [12], greater than 100 µM.

Turning to `NC(=O)NCCCC(NC(=O)OCCCCn1ccc(=O)[nH]c1=O)C(=O)O` (configuration not stated), the TGI in [1], in test [2], in test [3], in [4], in test [5] and in [6] was greater than 100 µM in each case. In addition, the TGI in test [7], in test [8], in [13], in test [10], in test [11] and in test [12] was greater than 100 µM each time.

Consider `N#Cc1c(-c2ccccc2)/c(=C\Nc2cccc(C(F)(F)F)c2)c(=O)n2c1nc1ccccc12`, for which the TGI is 91.4 µM in test [1]; 74.2 µM in test [2]; greater than 100 µM in [3]; 50.5 µM in test [4]; greater than 100 µM in [5]; greater than 100 µM in test [7]. Also, the TGI in test [8] was greater than 100 µM; in test [9] it was greater than 100 µM; in test [10] it was greater than 100 µM; in [11], greater than 100 µM; in test [12] it was 51.5 µM.

As for `NC(N)=N/N=C/c1c(-c2ccc(N)cc2)nc2sccn12`, the TGI in [1] was 60.1 µM; in [2], 61.1 µM; in [4], 48.7 µM; in test [5], greater than 100 µM; in [6], 73.9 µM; in test [7], greater than 100 µM. For the same compound, the TGI in test [8] is greater than 100 µM; in test [13] it was 89.3 µM; in [9], 68.2 µM; in test [10], 58.7 µM; in [11], greater than 100 µM; in test [12], greater than 100 µM.

As for `CC(C)=CCc1c2c(c3occ(-c4ccc(O)cc4)c(=O)c3c1O)CC(C(C)(C)O)O2` (configuration not stated), the TGI is 49.1 µM in [1]; 31.9 µM in test [3]; 38.5 µM in test [4]; greater than 100 µM in test [5]; 31.8 µM in test [6]; 58.5 µM in test [7]. Moreover, the TGI in test [8] is 30 µM; in test [9] it was 29.6 µM; in [10], 26.7 µM; in [11], 31 µM; in test [12] it was 36.2 µM.
